Measurements: US20200080091A1, “Methods for Treating Obesity of a Subject Suffering from Obesity” (NAKAJIMA Toshihiro, priority 2012, published 2020)

Experiments:
3T3-L1 cells = experiment: adipocyte differentiation induction of 3T3-L1 cells (Oil Red O staining); type: cell-based, mice; settings: 200 μmol siRNA introduced by Lipofectamine2000 two days before induction of differentiation; compared to a control; FIG. 4
Protocol: 3T3-L1 cells, which are preadipocytes of mice, were cultivated in Dulbecco's Modified Eagle Medium (DMEM; High Glucose) containing 10% fetal bovine serum (FBS) for 3 days after reaching confluent state. 500 μM of isobutyl-methylxanthine (IBMX), 1 μM of Dexamethasone, and 5 μg/mL of Insulin were added to induce differentiation. At the same time, 10 μM of LS-102 (ubiquitination activity inhibitor of synoviolin) or DMSO was added. After cultivation for 3 days, the medium was replaced with medium containing 4 μg/mL of Insulin and 10 μM of LS-102 or DMSO was added. After cultivation for 3 days, the medium was replaced with DMEM (High Glucose) containing 10% FBS to cultivate for 3 days. For siRNA, 200 μmol of siRNA Syno770 (sense strand consists of the following SEQ ID NO: 2) was introduced by the Lipofectamine2000 two days before induction of differentiation.
After the cultivated 3T3-L1 cells were washed with PBS(−) (Phosphate Buffered Saline solution from which magnesium and calcium had been eliminated), the cells were fixed by 10% formalin. The cells were washed with the PBS(−) to be replaced with 60% isopropanol. After staining for 20 minutes with 18 mg/ml of Oil Red 0 (solvent Isopropanol), the cells were washed with 60% isopropanol and PBS(−) and observed by a microscope.

synoviolin protein = target: T1, synoviolin protein (Homo sapiens, UniProt Q86TM6); settings: disclosed in Japanese Patent Application Publication No. 2008-74753; cited from earlier work
T1 construct: MBP-Syno ΔTM-His means synoviolin in which transmembrane domain has been deleted
T1 sequence (Q86TM6 246-617 limits assumed): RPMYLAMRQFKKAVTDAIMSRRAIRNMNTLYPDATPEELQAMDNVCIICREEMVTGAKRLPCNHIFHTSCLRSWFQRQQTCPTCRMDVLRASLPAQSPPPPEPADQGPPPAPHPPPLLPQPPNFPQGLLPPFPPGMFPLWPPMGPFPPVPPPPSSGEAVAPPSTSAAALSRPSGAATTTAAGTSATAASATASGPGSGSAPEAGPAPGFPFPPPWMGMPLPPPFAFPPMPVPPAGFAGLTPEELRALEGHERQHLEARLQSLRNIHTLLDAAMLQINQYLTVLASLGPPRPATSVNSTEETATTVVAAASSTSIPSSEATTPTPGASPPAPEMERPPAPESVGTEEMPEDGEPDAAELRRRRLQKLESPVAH

Compound | differentiation of adipose cells (3T3-L1 cells) | self-ubiquitination of synoviolin protein (synoviolin protein)
5′ -GCUGUGACAGAUGCCAUCA-3′ [siRNA Syno770] | differentiation has been suppressed | –
CC1=CC(=O)c2c(O)cccc2C1=O [plumbagin, 2-methyl-5-hydroxy-1,4-naphthoquinone] | – | inhibit
O=c1c(O)c(-c2ccc(O)c(O)c2)oc2cc(O)cc(O)c12 [quercetin, 2-(3,4-dihydroxyphenyl)-3,5,7-trihydroxy-4H-1-benzopyrano-4-on] | – | inhibit
